33 molecules from ChEMBL document CHEMBL3352346, “Optimization of sphingosine-1-phosphate-1 receptor agonists: effects of acidic, basic, and zwitterionic chemotypes on pharmacokinetic and pharmacodynamic profiles” (J Med Chem, 2014) can be followed below.

Data set [1] addresses Sphingosine 1-phosphate receptor 1 (Homo sapiens, UniProt P21453). The data set is described as follows: Agonist activity at human S1P1R expressed in RH7777 membranes assessed as [35S]GTPgammaS binding after 30 mins. The data set is classed as functional, cell membranes.
The target of data set [2] is Sphingosine 1-phosphate receptor 3 (Homo sapiens, UniProt Q99500). Put plainly: Agonist activity at human S1P3R expressed in RBL membranes assessed as [35S]GTPgammaS binding after 30 mins. It is filed as functional, cell membranes.
For the next data set, the target named is Albumin (Homo sapiens, UniProt P02768). The data set is described as follows: Fraction unbound as a percentage in human serum albumin. It is filed as ADME.
The nature of data set [3]: Chromatographic hydrophobicity index, log D of the compound at pH 7.4. The data set is classed as physicochemical. The note with it: buffer.
Data set [4] deals with Rattus norvegicus. The data set is described as follows: Reduction of lymphocyte count in rat at 3 mg/kg, po measured at 4 hrs relative to control. The data set is classed as functional.
Data set [5] is described as follows: Chromatographic hydrophobicity index, log D of the compound at pH 2. The data set is classed as physicochemical. To be noted: buffer.
For data set [6], the system named is Rattus norvegicus. Put plainly: Reduction of lymphocyte count in rat at 3 mg/kg, po measured at 12 hrs relative to control. It is filed as functional.
A short description of data set [7]: Chromatographic hydrophobicity index, log D of the compound at pH 10.5. The note with it: buffer. The data set is classed as physicochemical.
The subject of data set [8] is Rattus norvegicus. Put plainly: Reduction of lymphocyte count in rat at 3 mg/kg, po measured at 8 hrs relative to control. The data set is classed as functional.
Data set [9] relates to Rattus norvegicus. Put plainly: Reduction of lymphocyte count in rat at 3 mg/kg, po measured at 24 hrs relative to control. It is filed as functional.
Data set [10] in a line: Oral bioavailability in CD rat at 3 mg/kg using Methylcellulose(aq), 1% (w/v) suspension. It is filed as ADME, organism-based. The note with it: CD, in vivo.
Data set [11] can be described thus: Half life in CD rat at 1 mg/kg, iv or 3 mg/kg, po using DMSO/10%(w/v) Kleptose, 0.9% saline(aq) (2%/98%). It is filed as ADME, organism-based. The note with it: in vivo.
Data set [12] can be described thus: Volume of distribution at steady state in CD rat at 1 mg/kg, iv or 3 mg/kg, po using DMSO/10%(w/v) Kleptose, 0.9% saline(aq) (2%/98%). It is filed as ADME, organism-based. To be noted: in vivo, read-out: Vdss.
Data set [13] is described as follows: Clearance in CD rat at 1 mg/kg, iv or 3 mg/kg, po using DMSO/10%(w/v) Kleptose, 0.9% saline(aq) (2%/98%). It is filed as ADME, organism-based. The note with it: in vivo.

Bounds are passed on as bounds.

Sphingosine 1-phosphate receptor 1, sequence (P21453 whole entry): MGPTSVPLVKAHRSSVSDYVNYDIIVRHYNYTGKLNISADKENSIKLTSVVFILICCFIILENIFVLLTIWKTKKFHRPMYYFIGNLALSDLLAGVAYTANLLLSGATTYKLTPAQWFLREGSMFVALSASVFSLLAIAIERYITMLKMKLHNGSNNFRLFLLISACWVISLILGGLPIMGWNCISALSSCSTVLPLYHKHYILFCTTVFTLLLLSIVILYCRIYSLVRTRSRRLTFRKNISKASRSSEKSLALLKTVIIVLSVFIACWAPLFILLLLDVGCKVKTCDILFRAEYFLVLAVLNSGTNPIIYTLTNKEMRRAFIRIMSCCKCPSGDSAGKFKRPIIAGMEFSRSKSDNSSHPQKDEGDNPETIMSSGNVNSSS
Sphingosine 1-phosphate receptor 3, sequence (Q99500 whole entry): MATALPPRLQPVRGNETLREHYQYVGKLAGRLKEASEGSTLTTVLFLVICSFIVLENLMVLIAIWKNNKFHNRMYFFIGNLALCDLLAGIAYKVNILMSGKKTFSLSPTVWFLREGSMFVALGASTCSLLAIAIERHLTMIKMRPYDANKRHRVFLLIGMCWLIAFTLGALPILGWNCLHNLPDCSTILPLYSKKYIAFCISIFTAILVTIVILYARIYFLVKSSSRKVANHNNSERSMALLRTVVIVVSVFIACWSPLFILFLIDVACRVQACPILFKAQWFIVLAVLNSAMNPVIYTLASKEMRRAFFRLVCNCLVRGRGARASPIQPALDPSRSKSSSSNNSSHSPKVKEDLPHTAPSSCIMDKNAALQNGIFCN
Albumin, sequence (P02768 whole entry): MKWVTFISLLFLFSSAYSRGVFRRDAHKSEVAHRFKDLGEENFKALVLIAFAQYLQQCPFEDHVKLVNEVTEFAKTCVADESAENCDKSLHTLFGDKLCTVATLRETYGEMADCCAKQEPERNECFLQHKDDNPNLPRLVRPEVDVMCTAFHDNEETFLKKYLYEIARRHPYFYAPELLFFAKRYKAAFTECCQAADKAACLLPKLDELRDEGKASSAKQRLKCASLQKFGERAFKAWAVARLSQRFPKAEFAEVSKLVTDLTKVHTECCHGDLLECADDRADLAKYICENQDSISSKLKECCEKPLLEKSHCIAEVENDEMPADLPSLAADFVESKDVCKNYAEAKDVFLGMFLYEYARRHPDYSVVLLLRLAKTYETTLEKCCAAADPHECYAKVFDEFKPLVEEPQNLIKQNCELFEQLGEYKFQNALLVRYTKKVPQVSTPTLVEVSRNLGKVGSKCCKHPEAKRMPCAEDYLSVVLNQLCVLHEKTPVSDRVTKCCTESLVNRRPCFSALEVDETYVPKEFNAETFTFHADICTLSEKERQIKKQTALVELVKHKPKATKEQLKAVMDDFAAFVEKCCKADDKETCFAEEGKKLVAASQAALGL

One may read the EC50 as the concentration at which the effect is half-maximal. Consider `CC(C)Oc1ccc(-c2nc(-c3cccc4c3OCCNC4CCCC(=O)O)no2)cc1Cl` (stereo unspecified), for which the values for the EC50 in data set [1] and in data set [2] were 10 nM and 25100 nM, respectively.

In the case of `CC(C)Oc1ccc(-c2nc(-c3cccc4c3CN(CCCC(=O)O)C4)no2)cc1Cl`, the EC50 in data set [1] was 501 nM; in [2], 2000 nM.

By fraction unbound is commonly meant free concentration divided by total concentration. Read a high fraction unbound as weak binding. On to `O=C(O)c1cnn(Cc2ccc(-c3noc(-c4cc(-c5ccccc5)c(C(F)(F)F)s4)n3)cc2)c1`, for which the results for the EC50 in data set [1] and in [2] were 251 nM and 1580 nM, respectively. Moreover, the fraction unbound at Albumin stood at 0.01.

`CC(C)Oc1ccc(-c2nc(-c3ccc4c(c3)CCN(CC(=O)O)CC4)no2)cc1C#N`: the values for the EC50 in data set [1] and in data set [2] were 3.98 nM and 2000 nM, respectively.

For `CC(C)Oc1ccc(-c2nc(-c3cccc4c3CCNCC4)no2)cc1Cl`, the EC50 in data set [1] was 15.8 nM; in [2], over 31600 nM.

As to `CC(C)Oc1ccc(-c2nc(-c3ccc4c(c3)CNCCO4)no2)cc1C#N`, the EC50 in [1] was 25.1 nM; in [2], 6310 nM.

Regarding `CC(C)Oc1ccc(-c2nc(-c3ccc4c(c3)CCCNC4)no2)cc1Cl`, the figures for the EC50 in [1] and in data set [2] were 398 nM and over 31600 nM, respectively.

Consider `CC(C)Oc1ccc(-c2nc(-c3ccc4c(c3)CN(CCC(=O)O)CCO4)no2)cc1C#N`, for which the figures for the EC50 in data set [1] and in data set [2] were 50.1 nM and over 31600 nM, respectively.

Take `CC(C)Oc1ccc(-c2nc(-c3ccc4c(c3)CNC(C(=O)O)CO4)no2)cc1Cl` (stereo unspecified): the results for the 50% effective concentration (EC50) in data set [1] and in [2] were 5.01 nM and 794 nM, respectively.

Consider `CC(C)Oc1ccc(-c2nc(-c3ccc4c(c3)OCCNC4)no2)cc1C#N`, for which the EC50 in data set [1] was 79.4 nM; in [2] it was over 31600 nM.

Take `CC(C)Oc1ccc(-c2nc(-c3cccc4c3CCNCC4)no2)cc1C#N`: the EC50 in data set [1] was 2 nM; in [2], 7940 nM.

As to `CC(C)Oc1ccc(-c2nc(-c3cccc4c3CNC4)no2)cc1Cl`, the EC50 in data set [1] is 7.94 nM; in data set [2], over 31600 nM.

As for `CC(C)Oc1ccc(-c2nc(-c3ccc4c(c3)OCCNC4)no2)cc1Cl`, the EC50 in [1] is 316 nM; in data set [2], over 31600 nM.

The term chromatographic logD denotes lipophilicity estimated from chromatographic retention. A higher chromatographic logD goes with a more lipophilic compound. As for `CC(C)Oc1ccc(-c2nc(-c3cccc4c3CCNC4CC(=O)O)no2)cc1C#N` (stereo unspecified), the chromatographic logD in data set [3] stood at 1.58; in data set [5], 1.17; in [7] it was 1.27. Further, the EC50 in data set [1] was 5.01 nM; in data set [2], 12600 nM. Further, the Activity in the data set on Rattus norvegicus [4] is recorded as 46; in the data set on Rattus norvegicus [6], 108; in the data set on Rattus norvegicus [8], 69; in the data set on Rattus norvegicus [9], 132.

As to `CC(C)Oc1ccc(-c2nc(-c3cccc4c3OCCNC4)no2)cc1Cl`, the EC50 in [1] was 79.4 nM; in data set [2], over 31600 nM.

With `CC(C)Oc1ccc(-c2nc(-c3cccc4c3CCN(CC(=O)O)CC4)no2)cc1Cl`, the concentration for a half-maximal effect (EC50) in data set [1] is 2510 nM; in data set [2] it was over 31600 nM.

`CC(C)Oc1ccc(-c2nc(-c3cccc4c3CN(CCCC(=O)O)C4)no2)cc1C#N`: the 50% effective concentration (EC50) in data set [1] is 398 nM; in data set [2], over 31600 nM.

On to `CC(C)Oc1ccc(-c2nc(-c3ccc4c(c3)CNC(CCC(=O)O)CO4)no2)cc1Cl` (stereo unspecified), for which the figures for the EC50 in data set [1] and in data set [2] were 2.51 nM and 251 nM, respectively.

For the molecule `CC(C)Oc1ccc(-c2nc(-c3ccc4c(c3)CCN(CCC(=O)O)CC4)no2)cc1Cl`, the EC50 was 7.94 nM in data set [1] and 10000 nM in data set [2].

`CC(C)Oc1ccc(-c2nc(-c3ccc4c(c3)CCNC4)no2)cc1C#N`: the values for the 50% effective concentration (EC50) in [1] and in data set [2] were 3.98 nM and 31600 nM, respectively.

With `CC(C)Oc1ccc(-c2nc(-c3ccc4c(c3)CN(CCCC(=O)O)CCO4)no2)cc1C#N`, the results for the 50% effective concentration (EC50) in [1] and in data set [2] were 63.1 nM and 25100 nM, respectively.

On to `CC(C)Oc1ccc(-c2nc(-c3ccc4c(c3)CN(CCC(=O)O)CCO4)no2)cc1Cl`, for which the results for the EC50 in data set [1] and in data set [2] were 126 nM and 2000 nM, respectively.

For `CC(C)Oc1ccc(-c2nc(-c3ccc4c(c3)CCCNC4)no2)cc1C#N`, the EC50 in [1] was 126 nM; in data set [2], over 31600 nM.

Regarding `CC(C)Oc1ccc(-c2nc(-c3cccc4c3CCCNC4)no2)cc1Cl`, the results for the EC50 in data set [1] and in data set [2] were 631 nM and over 31600 nM, respectively.

For the molecule `CC(C)Oc1ccc(-c2nc(-c3cccc4c3CCN(CCC(=O)O)CC4)no2)cc1Cl`, the EC50 in data set [1] was 158 nM; in data set [2], over 31600 nM.

`CC(C)Oc1ccc(-c2nc(-c3cccc4c3CN(CCC(=O)O)C4)no2)cc1Cl`: the concentration for a half-maximal effect (EC50) in [1] is 316 nM; in [2], 7940 nM.

As to `CC(C)Oc1ccc(-c2nc(-c3ccc4c(c3)CCN(CCC(=O)O)C4)no2)cc1C#N`, the EC50 in data set [1] was 6.31 nM; in [2], 3980 nM.

Broadly, the bioavailability is dose-corrected exposure relative to a reference, in per cent. A low value points to little systemic uptake. In general, half-life refers to the time needed for the level to fall by half in the phase considered. A high value points to slow loss. Regarding `CC(C)Oc1ccc(-c2nc(-c3cccc4c3CCNC4CC(=O)O)no2)cc1Cl` (stereo unspecified), the chromatographic logD came to 2.02 in data set [3], 1.47 in [5] and 1.73 in data set [7]. Also, the concentration giving a half-maximal response (EC50) in data set [1] was 20 nM; in data set [2] it was 5010 nM. Besides, the bioavailability in data set [10] came out at 10%. This molecule also showed a half-life in data set [11] of 6.7 h. The Activity was 24 with Rattus norvegicus [4], 58 in the data set on Rattus norvegicus [6], 12 in the data set on Rattus norvegicus [8] and 99 with Rattus norvegicus [9]. In addition, the Vd in data set [12] was found to be 2.7 L/kg. Further, in [13], the clearance came out at 5 mL/min/kg.

Turning to `CC(C)Oc1ccc(-c2nc(-c3cccc4c3OCCNC4CCC(=O)O)no2)cc1Cl` (stereo unspecified), the EC50 was 5.01 nM in data set [1] and over 31600 nM in [2].

For `CC(C)Oc1ccc(-c2nc(-c3cccc4c3CCN(CC(=O)O)C4)no2)cc1C#N`, the EC50 in data set [1] is 7.94 nM; in [2], over 31600 nM.

On to `CC(C)Oc1ccc(-c2nc(-c3ccc4c(cnn4CCC(=O)O)c3)no2)cc1Cl`, for which the EC50 in data set [1] was 31.6 nM; in [2], over 31600 nM. At Albumin, this molecule showed a fraction unbound of 0.013.

On to `CC(C)Oc1ccc(-c2nc(-c3ccc4c(c3)CNCCO4)no2)cc1Cl`, for which the EC50 is 126 nM in data set [1] and 15800 nM in data set [2].

Turning to `CC(C)Oc1ccc(-c2nc(-c3cccc4c3CCNC4)no2)cc1Cl`, the figures for the EC50 in [1] and in data set [2] were 39.8 nM and 15800 nM, respectively.
